Experimental data published in patent US20050222041A1, “Ncam binding compounds” (ENKAM Pharmaceuticals A/S, priority 2001, published 2005).
“And” between values parts separate entries of the source, which are not always exact repeats. Identical values can stand only once. Like-named read-outs stand apart in the source and are kept apart here. Ends that are not written are not given here.

How the values were obtained:
[1] = tested on: NBP10-induced neurite outgrowth; assay: Inhibition of NBP10d-induced neurite outgrowth by inhibitors of NCAM-dependent signal transduction; assay type: cell-based, rat
PC12E2 cells = assay: Fura-2 calcium imaging in PC12E2 cells; assay type: cell-based; settings: lower concentrations than 50 μM
Experimental: The PC12-E2 cell line was a generous gift from Dr. Klaus Seedorf, Hagedorn Research Institute, Denmark. Cells were grown in DMEM supplemented with 5% v/v FBS and 10% v/v horse serum (HS). For calcium imaging, PC12E2 cells were dislodged mechanically by tapping and seeded at a density of 5-30,000 cells/cm^2 in 4 or 8 well LabTek chambered cover-slides (NUNC) with a growth surface of plastic coated with fibronectin (10 μg/ml) and grown for 1 to 5 days. In some cases, neuronal differentiation was induced by changing the medium to DMEM supplemented with 1% v/v FBS, 1% v/v HS and NGF (50 ng/ml) or FGF-2 (10 ng/ml).
Cells were washed in HANK's solution comprising KCl (5.4 mM), NaCl (137 mM), NaHCO3 (2 mM), MgSO4 (0.8 mM), Na2HPO4 (0.27 mM), Glucose (5.6 mM), CaCl2 (1.25 mM), KH2PO4 (0.44 mM) and loaded with fura-2 acetomethyl ester (Fura-2 AM, 2 μM, Molecular Probes, Eugene, Oreg., USA) dissolved in Dimethyl Sulfoxide (DMSO) for 35 min at 20° C. in the dark. Hereafter, cells were washed four times and placed on the stage of an inverted Axiovert 100 TV microscope (Zeiss, Göttingen, Germany) equipped with an oil immersion UV objective (Zeiss Fluar 40×, 1.3 numerical aperture). […] Rmax was determined in situ using Fura-2 AM loaded cells in the presence of ionomycin (5 μM) and high extracellular calcium (10 mM). Values determined were: Rmax 9.0; Rmin 0.68; F380max/F380min 7.0. […]

[2] = tested on: primary hippocampal neurons; assay: Neurite outgrowth in dissociated cultures of primary hippocampal neurons on plastic; assay type: cell-based, rat; settings: for concentration of maximal effect on neurite outgrowth: bell shaped dose-response
Experimental: (§1) Dissociated hippocampal cells prepared from rat embryos gestational day 18 were seeded in microwell plates 50,000 cells in 15 μl of medium per well as previously described (Maar et al., 1997)(Rønn et al., 1999). All animals were handled in accordance with the national guidelines for animal welfare. Cells were grown in Neurobasal medium supplemented with B27, 20 mM HEPES, penicillin (100 U/ml), streptomycin (100 μg/ml) and 0.4% w/v bovine serum albumin. After 24 h in culture, the number of aggregates per well was determined. For analysis of neurite outgrowth, 5,000 cells/well were seeded in 8 well LabTek Tissue Culture Chamber Slides with a growth surface of Permanox plastic. After 24 h, images of neurons were captured and analysed by means of computer-assisted microscopy as described (Rønn et al., 2000).
The effect of NBP10 in dissociated cultures of primary hippocampal neurons grown on a plastic substratum were examined.

hippocampal cells = assay: Cell aggregation in primary hippocampal aggregate cultures; assay type: cell-based, rat; settings: 24 h
Experimental: A variety of suitable compounds have been discussed above. To test the function of the NCAM binding molecule, the inventors have established a simple cell culture system (aggregate cell cultures) that permits a quantitative evaluation of the effect of various ligands. Hippocampal cells are provided from rat embryos. The cells are grown in a defined medium and dissociated cells are seeded in microtiter plates. After 24 h, the amount of aggregates are counted. Compounds to be tested are added to the cell suspension immediately before seeding of the cells in micro-wells. When NCAM binding compounds are present during the aggregation of cells, smaller, but more numerous cell aggregates are seen when quantified 24 h after seeding of the cells. The inhibiting effect of the ligands results in a blockage of the formation of large aggregates from many small aggregates as the adhesion properties of NCAM are blocked. Thus, small but more numerous cell aggregates are seen in the presence of active ligands. Such an effect is due to the presence of different compounds of the invention during the aggregation of cells. The system allows for the examination of disaggregation of the treated cells.
as §1, with “For analysis of neurite outgrowth, 5,000 cells/well were seeded in 8 well LabTek Tissue Culture Chamber Slides with a growth surface of Permanox plastic.” left out
An important function of NCAM is mediation of cell adhesion. […] The effect of NBP10 on cell aggregation was only quantified at low concentrations of the peptide (FIG. 1CD). […] Under these conditions, the number of aggregates could not be quantified. […]

[3] = biological target: NCAM on primary hippocampal neurons from rat embryos (rat) (UniProt P13596); assay: cell-based or functional assay
[4] = NBP10d 1 μM, inhibitor concentration not given

## COc1cccc(-c2cc(=O)c3ccccc3o2)c1N [PD98059]
[1]; NBP10d 1 μM, inhibitor 10 μM
  effect on NBP10-induced neurite outgrowth: partially inhibited

## Cc1ccc(-c2nn(C(C)(C)C)c3ncnc(N)c23)cc1 [PP1]
[1]; [4]
  effect on NBP10-induced neurite outgrowth: partially inhibited

## C[S+]([O-])c1ccc(-c2nc(-c3ccncc3)c(-c3ccc(F)cc3)[nH]2)cc1 (stereo not shown) [SB203580]
[1]; NBP10d 1 μM, inhibitor 1 μM
  effect on NBP10-induced neurite outgrowth: partially inhibited

## CCN(CC)CCCCCCCCOC(=O)c1cc(OC)c(OC)c(OC)c1.Cl [TMB-8, 8-(N,N-diethylamino)octyl-3,4,5-trimethoxybenzoate hydrochloride]
[1]; [4]
  effect on NBP10-induced neurite outgrowth: complete inhibition

## AKKMWKKTW (listed as Rattus rattus) [NBP10]
PC12E2 cells
  effect on intracellular calcium: only a fraction of the cells showed detectable increases in intracellular calcium

## AKKMWKKTW [NBP10m, monomeric NBP10 peptide]
[2]
  shape of dose-response relationship for neurite outgrowth: bell shaped
  concentration of maximal effect on neurite outgrowth: ~100 µM
[2]; listed as monomer
  concentration of maximal effect on neurite outgrowth: 1.00 µM
[2]; dose-response, 24 h, plastic substratum
  effect on neurite outgrowth: stimulated neurite outgrowth
Hippocampal cells
  concentration at which cultures had no distinct cell aggregates: 200 µM
  concentration inducing formation of small but distinct aggregates: 60 µM
  effect on cell aggregation: inhibited cell aggregation

## ω-conotoxin MVIIA
[1]
  effect on NBP10-induced neurite outgrowth: partial inhibition

## AKKMWKKTW (peptide, part only, also: four monomers on lysine dendrimer backbone) [NBP10 peptide dendrimer (four NBP10 monomers coupled to a lysine backbone)]
[3]
  cell aggregation of hippocampal cells, concentration with effect: 1 µM and 2 µM
  neurite outgrowth of dissociated hippocampal neurons, concentration of maximal effect: 1 µM
[3]; scale: times lower concentration than the monomer
  cell aggregation, potency against the peptide monomer: 50
